Each structure is given as a SMILES string. Positions of bridges follow the written chain, without caps; N, C: chain ends. Non-standard residues stand in square brackets, D forms with d. Residues, ends and D or L forms follow the SMILES beside them. *: point of attachment. Octanoyl(6-Me) = CCC(C)CCCCC(=O)*; Dab = NCC[CH](N)C(=O)O

One assay deals with Streptococcus uberis. As to the kind of experiment: MIC, serial dilution in phenol red-glucose broth. It is filed as cell-based. Conditions: bactericidal, complete inhibition of growth, 37° C.; for MIC: Streptococcus uberis, read-out: MIC values for microorganism J (Streptococcus uberis). How it is done:
(§1) The minimum inhibitory concentrations (MIC values) of the above compounds and their two-component combinations of 1:1 ratio by weight against the following microorganisms arising from mastitis and metritis processes of cattle were tested by using the serial dilution method in a phenol red-glucose broth medium (manufactured by DIFCO) or, by using a Sabouraud's broth medium, respectively in the cases of fungal strains.
(§2) Bacterial strains were cultivated at 37° C. whilst the fungal strain (Candida albicans) was propagated at 26° C.

A further assay has as its system Mycoplasma canadense. As to the kind of experiment: MIC, serial dilution in phenol red-glucose broth. Type of assay: cell-based. Conditions: bactericidal, complete inhibition of growth, 37° C.; for MIC: Mycoplasma, read-out: MIC values for microorganism V (Mycoplasma canadense). How it is done: as §1, §2
In another assay the test system is Klebsiella pneumoniae. Kind of assay: MIC, serial dilution in phenol red-glucose broth. To be noted: bactericidal, complete inhibition of growth, 37° C.; for MIC: Klebsiella pneumoniae, read-out: MIC values for microorganism E (Klebsiella pneumoniae). Type of assay: cell-based. How it is done:
as §1, §2

In another assay the test system is Mycoplasma bovirhinis. As to the kind of experiment: MIC, serial dilution in phenol red-glucose broth. It is filed as cell-based. To be noted: bactericidal, complete inhibition of growth, 37° C.; for MIC: Mycoplasma, read-out: MIC values for microorganism U (Mycoplasma bovirhinis). Here is the method: as §1, §2
The test system of assay [1] is Streptococcus zooepidemicus. As to the kind of experiment: MIC, serial dilution in phenol red-glucose broth. It is filed as cell-based. Conditions: bactericidal, complete inhibition of growth, 37° C.; for MIC: Streptococcus equi, read-out: MIC values for microorganism B (Streptococcus zooepidemicus). How it is done: as §1
B--Streptococcus zooepidemicus
as §2

The test system of a further assay is Streptococcus faecalis. Kind of assay: MIC, serial dilution in phenol red-glucose broth. Type of assay: cell-based. Conditions: bactericidal, complete inhibition of growth, 37° C.; for MIC: Enterococcus faecalis, read-out: MIC values for microorganism K (Streptococcus faecalis). Here is the method:
as §1
K--Streptococcus faecalis
as §2

The subject of a further assay is Salmonella typhimurium. As to the kind of experiment: MIC, serial dilution in phenol red-glucose broth. Type of assay: cell-based. Conditions: bactericidal, complete inhibition of growth, 37° C.; for MIC: Salmonella enterica, TYPHIMURIUM, read-out: MIC values for microorganism N (Salmonella typhimurium). Here is the method:
as §1
N--Salmonella typhimurium
as §2

The next assay relates to Aspergillus fumigatus. As to the kind of experiment: MIC, serial dilution in Sabouraud's broth. Type of assay: cell-based. To be noted: complete inhibition of growth; for MIC: Aspergillus fumigatus, read-out: MIC values for microorganism Z (Aspergillus fumigatus). How it is done: as §1
Z--Aspergillus fumigatus.
as §2

For the next assay, the system named is Campylobacter jejuni. Kind of assay: MIC in semiliquid thiol culture medium. To be noted: bactericidal, complete inhibition of growth, 37° C.; for MIC: Campylobacter jejuni, read-out: MIC values for microorganism P (Campylobacter jejuni). Type of assay: cell-based. Here is the method: as §1
(§3) Campylobacter strains were tested in a semiliquid thiol culture medium (manufactured by DIFCO). Bacteroides fragilis and Fusobacterium necrophorum strains were examined by using the agar dilution method on bloody agar containing also tryptose.
as §2

A further assay has as its system Campylobacter fetus. Kind of assay: MIC in semiliquid thiol culture medium. Conditions: bactericidal, complete inhibition of growth, 37° C.; for MIC: Campylobacter fetus, read-out: MIC values for microorganism O (Campylobacter fetus). Type of assay: cell-based. Here is the method: as §1, §3, §2
Another assay has as its system Staphylococcus aureus. As to the kind of experiment: microbe, parasite or virus in culture. To be noted: for MIC: Staphylococcus aureus, read-out: MIC values for microorganism A (Staphylococcus aureus). How it is done:
as §1, §2

The next assay deals with Escherichia coli 494. As to the kind of experiment: microbe, parasite or virus in culture. Conditions: for MIC: Escherichia coli, 494, read-out: MIC values for microorganism C (Escherichia coli 494). Here is the method: as §1, §2
Another assay has as its system Escherichia coli 17. Kind of assay: microbe, parasite or virus in culture. Conditions: for MIC: Escherichia coli, 17, read-out: MIC values for microorganism D (Escherichia coli 17). How it is done: as §1, §2
In another assay the test system is Pseudomonas aeruginosa. Kind of assay: MIC, serial dilution in phenol red-glucose broth. It is filed as cell-based. To be noted: bactericidal, complete inhibition of growth, 37° C.; for MIC: Pseudomonas aeruginosa, read-out: MIC values for microorganism F (Pseudomonas aeruginosa). How it is done: as §1
F--Pseudomonas aeruginosa
as §2

The test system of another assay is Corynebacterium pyogenes. As to the kind of experiment: MIC, serial dilution in phenol red-glucose broth. It is filed as cell-based. Conditions: bactericidal, complete inhibition of growth, 37° C.; for MIC: Corynebacterium pyogenes, read-out: MIC values for microorganism M (Corynebacterium pyogenes). How it is done:
as §1
M--Corynebacterium pyogenes
as §2

A further assay deals with Bacteroides fragilis. As to the kind of experiment: MIC, agar dilution method on bloody agar. Type of assay: cell-based. To be noted: agar dilution method on bloody agar containing tryptose, 37° C.; for MIC: Bacteroides fragilis, read-out: MIC values for microorganism R (Bacteroides fragilis). Here is the method: as §1, §3, §2
For the next assay, the system named is Candida albicans. As to the kind of experiment: MIC, serial dilution in Sabouraud's broth. It is filed as cell-based. Conditions: for MIC: Candida albicans, read-out: MIC values for microorganism G (Candida albicans). Here is the method:
as §1, §2

The subject of another assay is Mycoplasma bovis. Kind of assay: MIC, serial dilution in phenol red-glucose broth. Type of assay: cell-based. To be noted: bactericidal, complete inhibition of growth, 37° C.; for MIC: Mycoplasmopsis bovis, read-out: MIC values for microorganism T (Mycoplasma bovis). Here is the method: as §1
Bacterial strains were cultivated at 37° C. whilst the fungal strain (Candida albicans) was propagated at 26° C. The minimum inhibitory concentrations (MIC values) showing a bactericidal effect, i.e. complete inhibition of the growth of microorganisms whereby the media inoculated remained sterile, are summarized in Table 1.

In assay [2] the test system is Streptococcus dysgalactiae. Kind of assay: MIC, serial dilution in phenol red-glucose broth. Type of assay: cell-based. Conditions: bactericidal, complete inhibition of growth, 37° C.; for MIC: Streptococcus dysgalactiae, read-out: MIC values for microorganism I (Streptococcus dysgalactiae). Here is the method:
as §1
I--Streptococcus dysgalactiae
as §2

Another assay relates to Streptococcus agalactiae. As to the kind of experiment: MIC, serial dilution in phenol red-glucose broth. To be noted: bactericidal, complete inhibition of growth, 37° C.; for MIC: Streptococcus agalactiae, read-out: MIC values for microorganism H (Streptococcus agalactiae). It is filed as cell-based. Here is the method:
as §1
H--Streptococcus agalactiae
as §2

The next assay has as its system Listeria monocytogenes. As to the kind of experiment: MIC, serial dilution in phenol red-glucose broth. It is filed as cell-based. Conditions: bactericidal, complete inhibition of growth, 37° C.; for MIC: Listeria monocytogenes, read-out: MIC values for microorganism L (Listeria monocytogenes). Here is the method: as §1
L--Listeria monocytogenes
as §2

In assay [3] the test system is Fusobacterium necrophorum. As to the kind of experiment: MIC, agar dilution method on bloody agar. It is filed as cell-based. To be noted: agar dilution method on bloody agar containing tryptose, 37° C.; for MIC: Fusobacterium necrophorum, read-out: MIC values for microorganism S (Fusobacterium necrophorum). Here is the method: as §1
S--Fusobacterium necrophorum
as §3, §2

Where [4] appears, read: complete inhibition of growth, Sabouraud's broth, 26° C.
The mark [5] stands for this setting: bactericidal, complete inhibition of growth, phenol red-glucose broth, 37° C.

For the molecule `Cc1ccc2c(Cl)cc(Cl)c(O)c2n1` [Chlorquinaldol, 2-methyl-5,7-dichloro-8-hydroxyquinoline], the MIC turned out to be 0.5 µg/mL in the assay with Streptococcus uberis; 8 µg/mL in the assay on Mycoplasma canadense; 200 µg/mL in the assay with Klebsiella pneumoniae; 4 µg/mL with Mycoplasma bovirhinis; 0.5 µg/mL in assay [1]; 5 µg/mL in the assay on Streptococcus faecalis. For the same molecule, the MIC in the assay with Salmonella typhimurium is 200 µg/mL; with Aspergillus fumigatus, 25 µg/mL; in the assay on Campylobacter jejuni, 5 µg/mL; with Campylobacter fetus it was 10 µg/mL; in the assay on Staphylococcus aureus, 5 µg/mL; in the assay with Escherichia coli 494, 5 µg/mL. Further, the MIC with Escherichia coli 17 stood at 5 µg/mL; in the assay on Pseudomonas aeruginosa, 200 µg/mL; in the assay with Corynebacterium pyogenes it was 5 µg/mL; with Bacteroides fragilis, 1.5 µg/mL; in the assay with Candida albicans (setting [4]), 1 µg/mL; in the assay with Mycoplasma bovis, 32 µg/mL. Also, the MIC turned out to be 0.5 µg/mL in assay [2], 0.5 µg/mL with Streptococcus agalactiae, 1 µg/mL with Listeria monocytogenes and 3 µg/mL in [3].

Turning to `Clc1ccccc1C(c1ccccc1)(c1ccccc1)n1ccnc1` [Clotrimazole, 1-(2-chlorophenyl)-diphenylmethyl-1H-imidazole], the MIC in the assay with Streptococcus uberis is 0.5 µg/mL; in the assay with Mycoplasma canadense, 32 µg/mL; in the assay with Klebsiella pneumoniae, over 200 µg/mL; in the assay on Mycoplasma bovirhinis, 32 µg/mL; in [1] it was 0.5 µg/mL; in the assay with Streptococcus faecalis it was 5 µg/mL. Moreover, the MIC is 200 µg/mL in the assay with Salmonella typhimurium; 1 µg/mL with Aspergillus fumigatus; 100 µg/mL in the assay on Campylobacter jejuni; 100 µg/mL with Campylobacter fetus; 0.5 µg/mL in the assay with Staphylococcus aureus; over 200 µg/mL in the assay with Escherichia coli 494. In addition, the MIC with Escherichia coli 17 is over 200 µg/mL; in the assay with Pseudomonas aeruginosa, over 200 µg/mL; in the assay on Corynebacterium pyogenes, 25 µg/mL; with Bacteroides fragilis, 200 µg/mL; with Candida albicans (setting [4]) it was 5 µg/mL; in the assay on Mycoplasma bovis, 32 µg/mL. In addition, the MIC in [2] was determined as 0.5 µg/mL; in the assay with Streptococcus agalactiae, 5 µg/mL; in the assay on Listeria monocytogenes, 5 µg/mL; in [3], 100 µg/mL. Also, the “effect on Escherichia coli strains, in words” value in the assay on Escherichia coli 494 (substance alone) and with Escherichia coli 17 (substance alone) was “very weak effect” throughout.

On to `CCC(C)CCCCC(=O)NC(CCN)C(=O)NC(C(=O)NC(CCN)C(=O)NC1CCNC(=O)C(C(C)O)NC(=O)C(CCN)NC(=O)C(CCN)NC(=O)C(CC(C)C)NC(=O)C(Cc2ccccc2)NC(=O)C(CCN)NC1=O)C(C)O` (stereo not drawn) [Polymyxin B, 6,9,18-tris(2-aminoethyl)-15-benzyl-21-[2,8-bis(2-aminoethyl)-5-(1-hydroxyethyl)-15-methyl-4,7,10-trioxo-3,6,9-triazaheptadecanamido]-3-(1-hydroxyethyl)-12-isobutyl-1,4,7,10,13,16,19-heptaazacyclotricosane-2,5,8,11,14,17,20-heptaone] ({Octanoyl(6-Me)}-[Dab]T[Dab][Dab][Dab]FL[Dab][Dab]T; lactam 4-C; configuration not given here), for which the “MIC values for microorganism J (Streptococcus uberis)” value in the assay on Streptococcus uberis worked out at 10 µg/mL. Also, in the assay on Mycoplasma canadense, the “MIC values for microorganism V (Mycoplasma canadense)” value amounted to 32 µg/mL. In the assay with Klebsiella pneumoniae, the “MIC values for microorganism E (Klebsiella pneumoniae)” value is 5 µg/mL. For the same molecule, in the assay on Mycoplasma bovirhinis, the “MIC values for microorganism U (Mycoplasma bovirhinis)” value was found to be 32 µg/mL. In addition, the “MIC values for microorganism B (Streptococcus zooepidemicus)” value in assay [1] worked out at 5 µg/mL. For the same molecule, the “MIC values for microorganism K (Streptococcus faecalis)” value in the assay on Streptococcus faecalis came to 200 µg/mL. Moreover, in the assay with Salmonella typhimurium, the “MIC values for microorganism N (Salmonella typhimurium)” value came out at 1 µg/mL. Moreover, in the assay with Aspergillus fumigatus, the “MIC values for microorganism Z (Aspergillus fumigatus)” value is 200 µg/mL. In the assay on Campylobacter jejuni, the “MIC values for microorganism P (Campylobacter jejuni)” value was 5 µg/mL. Further, the “MIC values for microorganism O (Campylobacter fetus)” value in the assay with Campylobacter fetus stood at 0.5 µg/mL. Also, the “MIC values for microorganism A (Staphylococcus aureus)” value in the assay with Staphylococcus aureus (setting [5]) stood at 50 µg/mL. The “MIC values for microorganism C (Escherichia coli 494)” value in the assay with Escherichia coli 494 (setting [5]) was 0.5 µg/mL. Besides, the “MIC values for microorganism D (Escherichia coli 17)” value with Escherichia coli 17 (setting [5]) was 0.5 µg/mL. Further, the “MIC values for microorganism F (Pseudomonas aeruginosa)” value in the assay with Pseudomonas aeruginosa came out at 0.5 µg/mL. The “MIC values for microorganism M (Corynebacterium pyogenes)” value in the assay with Corynebacterium pyogenes stood at 200 µg/mL. The “MIC values for microorganism R (Bacteroides fragilis)” value with Bacteroides fragilis was determined as 200 µg/mL. Moreover, in the assay on Candida albicans (setting [4]), the “MIC values for microorganism G (Candida albicans)” value was found to be 200 µg/mL. Further, the “fungicidal action, in words” value with Candida albicans (substance alone) is “practically no fungicidal action”. In the assay with Mycoplasma bovis, the “MIC values for microorganism T (Mycoplasma bovis)” value was 32 µg/mL. Moreover, the “MIC values for microorganism I (Streptococcus dysgalactiae)” value in assay [2] came to 5 µg/mL. The “MIC values for microorganism H (Streptococcus agalactiae)” value with Streptococcus agalactiae was found to be 5 µg/mL. Moreover, the “MIC values for microorganism L (Listeria monocytogenes)” value with Listeria monocytogenes worked out at 5 µg/mL. Further, the “MIC values for microorganism S (Fusobacterium necrophorum)” value in assay [3] is 200 µg/mL.

(Values after patent US5120711A, “Synergistically active veterinary compositions and process for preparing same” (EGIS Gyogyszergyar, priority 1988, dated 1992).)
